The EC50 is the midpoint of the concentration-response curve.

One assay has as its system MCF7. More on the design: method as in PMID 11485868. The settings on record: human cell-based MCF7 proliferation assay; cited from earlier work.
Assay [1] concerns the target T1, human estrogen receptor (hERα) (Homo sapiens, UniProt P03372).
T1 construct: expressed in transfected cells; host or cells: recombinant yeast strain (provided by Wagner and Oehlmann, Frankfurt; by permission of Routledge and Sumpter)
T1 sequence (P03372 1-595): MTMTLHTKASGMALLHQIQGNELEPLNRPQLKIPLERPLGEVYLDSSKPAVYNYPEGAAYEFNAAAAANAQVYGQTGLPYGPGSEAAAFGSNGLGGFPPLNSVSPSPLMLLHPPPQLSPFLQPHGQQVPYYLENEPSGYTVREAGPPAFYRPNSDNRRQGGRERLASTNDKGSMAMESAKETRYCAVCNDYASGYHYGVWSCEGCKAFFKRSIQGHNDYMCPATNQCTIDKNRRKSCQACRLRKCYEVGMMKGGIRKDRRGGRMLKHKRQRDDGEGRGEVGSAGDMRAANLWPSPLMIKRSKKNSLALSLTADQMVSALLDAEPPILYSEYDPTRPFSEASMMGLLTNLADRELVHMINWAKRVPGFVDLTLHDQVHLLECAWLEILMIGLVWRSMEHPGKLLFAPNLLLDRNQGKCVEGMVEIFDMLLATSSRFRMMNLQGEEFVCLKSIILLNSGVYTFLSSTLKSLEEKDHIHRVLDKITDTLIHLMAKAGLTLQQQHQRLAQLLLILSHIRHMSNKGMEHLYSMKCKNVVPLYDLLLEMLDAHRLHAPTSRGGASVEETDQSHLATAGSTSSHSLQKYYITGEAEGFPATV
Nature of the assay: Yeast estrogen screen (YES). Format: cell-based. The method, then:
(§1) Briefly, different resin types of food packaging were migrated with food simulants for 10 days at 60°C. […] From every sample two independent migrates were prepared, subsequently concentrated by solid phase extraction and tested in the bioassays. […] For each migration a solvent blank of each food simulant was migrated in a glass bottle with a polytetrafluorethylene-coated cap. Prior to solid phase extraction, 1 ml and 20 ml of each migrate were set aside for HPLC and GC analysis.
(§2) After 10 days of migration, solid phase extraction by Waters Oasis HLB columns (5 cc/200 mg) was used to extract hormone active components from the food simulants. As described in detail by Kirchnawy et al. sample migrates diluted to 10% ethanol and adjusted to pH 3 were drawn through the columns and eluted into […] DMSO. Elutes were evaporated under a nitrogen stream to a final volume of 150–200 µl and stored at 4°C prior to analysis by YES, YAS and CALUX bioassays. Extraction recoveries and reproducibility of the solid phase extraction were previously determined by Kirchnawy et al..
The yeast strain contains the stably integrated human estrogen receptor (hERα) gene and an expression plasmid containing the reporter gene lacZ under the control of estrogen responsive elements (ERE). The activation of the hERα by the binding of an estrogen active substance leads to the expression of β-galactosidase, which converts the substrate chlorophenol red-β-D-galactopyranoside (CPRG) into chlorophenol red.
The analysis of food contact materials was conducted as previously described by Kirchnawy et al.. Briefly, yeast cells were incubated with fresh media supplemented with 1% of the respective DMSO sample extracts on a 96-well microtiter plate for 24 h. […] The regression was calculated by MS Excel, using the formula for a linear regression curve (y = kx + d).

In assay [2] the target is T2, human estrogen receptor alpha (hERα) (Homo sapiens, UniProt P03372).
T2 construct: host or cells: human U2-OS osteosarcoma cells
T2 sequence (P03372 1-595): T1 sequence (P03372 1-595)
Nature of the assay: ERα CALUX reporter gene assay in U2-OS cells. The class given is cell-based. The following applies: for EC50: footnote a: inhibition of U2-OS cell growth at higher concentrations. The method, then:
as §1, §2
The ERα CALUX is a human U2-OS cell line stably co-transfected with an expression construct for the human estrogen receptor alpha (hERα). Activation of the hERα by the binding of an estrogen active substance leads to the transcription of luciferase, which emits light when luciferin is added as a substrate.
Assay procedure was conducted as previously described by Sonneveld et al. with modifications. U2-OS cells were plated at a concentration of 10 000 cells/well with 100 µl phenol red-free Dulbecco's modified eagle medium (DMEM) (supplemented with dextran-coated charcoal-stripped FCS) in a 96-well microtiter plate. After 24 h incubation at 37°C in a humidified atmosphere with 5% CO2, DMEM medium was refreshed and cells were incubated for another 24 h with 0.5% of the respective DMSO sample extract. After examining cell growth under a microscope to ensure that sample extracts had no cytotoxic or growth inhibiting effects, 50 µl Steady Glo Luciferase-Mix (Promega) was added to each well and incubated for 15 min for cell lysis. This was followed by measuring the luciferase activity of each well using a multilabel reader (Victor^3, Perkin Elmer).
(In general: Reporter assays use an easily measured gene product as a stand-in for the process of interest.)

For assay [3], the target named is T3, human androgen receptor (hAR) (Homo sapiens, UniProt P10275).
T3 sequence (P10275 1-920): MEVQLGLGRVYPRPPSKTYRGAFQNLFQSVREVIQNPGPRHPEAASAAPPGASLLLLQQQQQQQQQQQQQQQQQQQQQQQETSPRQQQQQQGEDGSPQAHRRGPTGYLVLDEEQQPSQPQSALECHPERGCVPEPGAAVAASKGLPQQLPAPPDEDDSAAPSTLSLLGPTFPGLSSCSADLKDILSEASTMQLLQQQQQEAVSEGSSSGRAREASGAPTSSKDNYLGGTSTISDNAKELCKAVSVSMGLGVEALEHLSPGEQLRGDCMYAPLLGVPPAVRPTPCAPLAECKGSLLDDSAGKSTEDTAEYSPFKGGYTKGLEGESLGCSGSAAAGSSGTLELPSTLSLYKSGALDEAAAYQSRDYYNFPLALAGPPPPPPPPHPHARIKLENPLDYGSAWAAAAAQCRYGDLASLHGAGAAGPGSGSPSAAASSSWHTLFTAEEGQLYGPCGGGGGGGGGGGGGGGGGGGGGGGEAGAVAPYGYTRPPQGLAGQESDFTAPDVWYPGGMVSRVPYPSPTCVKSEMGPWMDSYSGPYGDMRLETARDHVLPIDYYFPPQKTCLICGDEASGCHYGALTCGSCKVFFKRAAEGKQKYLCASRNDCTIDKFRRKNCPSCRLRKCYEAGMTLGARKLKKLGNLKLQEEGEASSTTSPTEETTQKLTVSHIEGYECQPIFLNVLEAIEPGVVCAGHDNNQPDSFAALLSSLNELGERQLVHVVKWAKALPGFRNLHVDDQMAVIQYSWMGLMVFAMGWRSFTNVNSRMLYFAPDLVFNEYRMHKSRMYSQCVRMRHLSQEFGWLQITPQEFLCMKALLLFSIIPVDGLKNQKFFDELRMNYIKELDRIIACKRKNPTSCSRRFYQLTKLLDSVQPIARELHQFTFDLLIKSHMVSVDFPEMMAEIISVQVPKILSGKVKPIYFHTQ
Nature of the assay: Yeast androgen screen (YAS). Format: cell-based. The following applies: footnote b: inhibition of yeast growth at higher concentrations. The method, then:
as §1, §2

The target of assay [4] is T3, human androgen receptor (hAR). Nature of the assay: AR CALUX reporter gene assay in U2-OS cells. The class given is cell-based. The following applies: footnote a: inhibition of U2-OS cell growth at higher concentrations. More on the design: host or cells: human U2-OS osteosarcoma cells. The method, then:
as §1, §2

For the next assay, the system named is CHO-K1 cells. More on the design: method as in PMID 18261797. The following applies: cited from earlier work.
In a further assay the test system is rainbow trout. Details: method as in PMID 18261797. The following applies: cited from earlier work.
The subject of assay [5] is kidney fibroblast cell 293T and human breast cancer cells ZR-75. More on the design: method as in PMID 7556011. The following applies: at a concentration of 100 µmol/l; cited from earlier work.
On the set-up of assay [6]: method as in PMID 21050888. The following applies: cited from earlier work.
[7] abbreviates: agonist mode, footnote b: inhibition of yeast growth at higher concentrations, read-out: YES Estrogen activity EC50.
[8] abbreviates: antagonist mode, spiked with 80 pmol/l 17β-estradiol, footnote b: inhibition of yeast growth at higher concentrations, read-out: YES Antiestrogen activity EC50.
The mark [9] stands for this setting: agonist mode, read-out: ER CALUX Estrogen activity EC50.
The mark [10] stands for this setting: antagonist mode, spiked with 8 pmol/l 17β-estradiol, read-out: ER CALUX Antiestrogen activity EC50.

Like-named read-outs stand apart in the source and are kept apart here.

As to `c1ccc(C2CCC2c2ccccc2)cc1` (stereo not drawn) [1,2-diphenylcyclobutane], the “times less active than 17β-estradiol” value in the assay with MCF7 was 4*10^5.

Regarding `c1ccc(CCCc2ccccc2)cc1` [1,3-diphenylpropane], the “estrogen activity in the YES (in words)” value in assay [1] (agonist mode) is reported as “tested positive for estrogen activity”. Further, the EC50 is 500 µM in assay [1] (setting [7]); above 1000 µM in assay [1] (setting [8]); 40 µM in assay [2] (setting [9]); above 500 µM in assay [2] (setting [10]); above 1000 µM in assay [3] (agonist mode, read-out: YAS Androgen activity EC50); 30 µM in assay [3] (antagonist mode, spiked with 2.4 nmol/l DHT, read-out: YAS Antiandrogen activity EC50). The EC50 in [4] (agonist mode, read-out: AR CALUX Androgen activity EC50) is above 500 µM; in assay [4] (antagonist mode, spiked with 400 pmol/l DHT, read-out: AR CALUX Antiandrogen activity EC50) it was 30 µM. The “estrogen activity in the ERα CALUX (in words)” value in assay [2] (agonist mode) was “tested positive for estrogen activity”.

Consider `CC(C)(c1ccccc1)c1ccc(O)c(C(C)(C)c2ccccc2)c1` [2,4-di-cumylphenol], for which the EC50 is above 300 µM in [1]; above 20 µM in assay [2] (ER CALUX Antiestrogen activity EC50, antagonist mode, spiked with 8 pmol/l 17β-estradiol); 5 µM in assay [2] (ER CALUX Estrogen activity EC50, agonist mode). Moreover, the “estrogen activity in the YES (in words)” value in [1] (agonist mode) was “showed estrogen activity”. Moreover, in assay [2] (agonist mode), the “estrogen activity in the ERα CALUX (in words)” value is “showed estrogen activity”.

With `CC(C)(C)c1ccc(O)c(C(C)(C)C)c1` [2,4-di-tert-butylphenol], the EC50 in assay [1] (setting [7]) is above 10 µM; in assay [1] (setting [8]), above 10 µM; in assay [2] (setting [9]), above 20 µM; in assay [2] (setting [10]) it was above 20 µM. Further, the “androgen antagonist in CHO-K1 cells” value in the assay on CHO-K1 cells is given as “androgen antagonist”. For the same compound, in the assay with rainbow trout, the “androgen antagonist in rainbow trout” value is reported as “androgen antagonist”.

With `Cc1cc(C(C)(C)C)c(O)c(C(C)(C)C)c1` [2,6-bis(1,1-dimethylethyl)-4-methylphenol], in [5], the “estrogen activity in 293T and ZR-75 cells” value is “tested positive for estrogen”.

Take `CCCCC(CC)COC(=O)CCCCC(=O)OCC(CC)CCCC` (stereo not drawn) [diethylhexyladipate (DEHA), diethylhexyladipate]: the “estrogen activity in the YES (in words)” value in assay [1] (agonist mode) is on record as “did not show any activity”. Also, the EC50 was above 1000 µM in assay [1] (setting [7]), above 1000 µM in assay [1] (setting [8]), above 500 µM in assay [2] (setting [9]) and above 500 µM in [2] (setting [10]). For the same compound, the “estrogen activity in the ERα CALUX (in words)” value in assay [2] (agonist mode) is “did not show any activity”. Further, the “estrogen activity using the E-Screen” value in assay [6] is recorded as “tested positive for estrogen activity”.

Source of the values: paper PMC4085075, “Characterization of Estrogen and Androgen Activity of Food Contact Materials by Different In Vitro Bioassays (YES, YAS, ERα and AR CALUX) and Chromatographic Analysis (GC-MS, HPLC-MS)” (PLoS ONE, 2014).
